Source: PubChem BioAssay (NCI)
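96-well plates; 48 h exposure; 5 concentrations. Endpoints by linear interpolation between flanking doses. Not reached: highest tested concentration assigned. GI50 is the concentration that inhibits growth by half. The concentration for full growth arrest is given as TGI.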

Columns and labels:
Assay in all cases: NCI anticancer screen, dose series, 48 h
[1] = system: NCI-H460 lung
[2] = system: HOP-62 NSCLC
[3] = system: SK-OV-3 ovarian
[4] = system: OVCAR-5 ovarian
[5] = system: HS 578T breast
[6] = system: A549 NSCLC
[7] = system: SF-295 CNS
[8] = system: MDA-MB-231 breast
[9] = system: NCI-H23 lung
[10] = system: ACHN renal
[11] = system: 786-0 renal
[12] = system: T-47D breast
[13] = system: HT29 colon
[14] = system: CCRF-CEM leukemia
[15] = system: UACC-62 melanoma
[16] = system: NCI/ADR-RES ovarian
[17] = system: UO-31 renal
[18] = system: HL-60(TB) leukemia
[19] = system: NCI-H226 lung
[20] = system: DU-145 prostate
[21] = system: HCC-2998 colon
[22] = system: NCI-H522 lung
[23] = system: EKVX NSCLC
[24] = system: OVCAR-4 ovarian
[25] = system: OVCAR-8 ovarian
[26] = system: KM12 colon
[27] = system: MCF7 breast
[28] = system: HCT-15 colon
[29] = system: MOLT-4 leukemia
[30] = system: UACC-257 melanoma
[31] = system: SN12C renal
[32] = system: SNB-19 CNS
[33] = system: CAKI-1 renal
[34] = system: A498 renal
[35] = system: OVCAR-3 ovarian
[36] = system: PC-3 prostate
[37] = system: K-562 leukemia
[38] = system: SF-539 CNS
[39] = system: SF-268 CNS
[40] = system: HOP-92 NSCLC
[41] = system: RXF 393 renal
[42] = system: SR leukemia
[43] = system: SK-MEL-5 melanoma
[44] = system: MALME-3M melanoma
[45] = system: COLO 205 colon
[46] = system: SK-MEL-28 melanoma
[47] = system: RPMI-8226 leukemia
[48] = system: M14 melanoma
[49] = system: U251 CNS
[50] = system: MDA-MB-435
[51] = system: HCT-116 colon
[52] = system: IGROV1 ovarian
[53] = system: TK-10 renal
[54] = system: SK-MEL-2 melanoma
[55] = system: LOX IMVI melanoma
[56] = system: BT-549 breast
[57] = system: SW-620 colon
[58] = system: SNB-75 CNS

Compound: C/C=C(/C)C(=O)OC1C=C(CO)C(=O)C(OC(=O)C2(C)OC2C)C1C(C)C (stereo not drawn)
- GI50 [1]: 2.93 µM
- TGI [1]: 8.27 µM
- GI50 [2]: 1.96 µM
- TGI [2]: 4.3 µM
- GI50 [3]: 4.45 µM
- TGI [3]: 14.3 µM
- GI50 [4]: 1.93 µM
- TGI [4]: 3.74 µM
- GI50 [5]: 3.68 µM
- TGI [5]: 22.9 µM
- GI50 [6]: 2.6 µM
- TGI [6]: 7.7 µM
- GI50 [7]: 2.62 µM
- TGI [7]: 8.16 µM
- GI50 [8]: 1.72 µM
- TGI [8]: 3.79 µM
- GI50 [9]: 2.09 µM
- TGI [9]: 4.88 µM
- GI50 [10]: 1.48 µM
- TGI [10]: 2.81 µM
- GI50 [11]: 1.79 µM
- TGI [11]: 3.24 µM
- GI50 [12]: 1.27 µM
- TGI [12]: 2.79 µM
- GI50 [13]: 1.66 µM
- TGI [13]: 3.38 µM
- GI50 [14]: 0.653 µM
- TGI [14]: 5.25 µM
- GI50 [15]: 1.33 µM
- TGI [15]: 2.68 µM
- GI50 [16]: 3.18 µM
- TGI [16]: 17.4 µM
- GI50 [17]: 1.61 µM
- TGI [17]: 2.96 µM
- GI50 [18]: 1.16 µM
- TGI [18]: 6.45 µM
- GI50 [19]: 3.55 µM
- TGI [19]: 13.7 µM
- GI50 [20]: 1.52 µM
- TGI [20]: 2.88 µM
- GI50 [21]: 1.74 µM
- TGI [21]: 3.22 µM
- GI50 [22]: 1.07 µM
- TGI [22]: 2.54 µM
- GI50 [23]: 2.75 µM
- TGI [23]: 7.63 µM
- GI50 [24]: 1.93 µM
- TGI [24]: 3.91 µM
- GI50 [25]: 2.07 µM
- TGI [25]: 5.54 µM
- GI50 [26]: 1.83 µM
- TGI [26]: 3.67 µM
- GI50 [27]: 1.19 µM
- TGI [27]: 4.14 µM
- GI50 [28]: 1.4 µM
- TGI [28]: 3.09 µM
- GI50 [29]: 1.96 µM
- TGI [29]: 6.5 µM
- GI50 [30]: 1.37 µM
- TGI [30]: 2.75 µM
- GI50 [31]: 1.45 µM
- TGI [31]: 2.99 µM
- GI50 [32]: 2.33 µM
- TGI [32]: 5.87 µM
- GI50 [33]: 1.81 µM
- TGI [33]: 3.2 µM
- GI50 [34]: 1.74 µM
- TGI [34]: 3.9 µM
- GI50 [35]: 1.17 µM
- TGI [35]: 2.45 µM
- GI50 [36]: 1.75 µM
- TGI [36]: 4.5 µM
- GI50 [37]: 1.33 µM
- TGI [37]: 10.8 µM
- GI50 [38]: 1.86 µM
- TGI [38]: 3.38 µM
- GI50 [39]: 2.46 µM
- TGI [39]: 6.32 µM
- GI50 [40]: 1.65 µM
- TGI [40]: 3.33 µM
- GI50 [41]: 1.77 µM
- TGI [41]: 3.27 µM
- GI50 [42]: 0.778 µM
- TGI [42]: 8.2 µM
- GI50 [43]: 1.56 µM
- TGI [43]: 3.04 µM
- GI50 [44]: 1.74 µM
- TGI [44]: 3.53 µM
- GI50 [45]: 1.85 µM
- TGI [45]: 3.43 µM
- GI50 [46]: 1.78 µM
- TGI [46]: 3.33 µM
- GI50 [47]: 1.5 µM
- TGI [47]: 5.17 µM
- GI50 [48]: 1.58 µM
- TGI [48]: 3.49 µM
- GI50 [49]: 1.52 µM
- TGI [49]: 2.85 µM
- GI50 [50]: 1.49 µM
- TGI [50]: 2.88 µM
- GI50 [51]: 1.13 µM
- TGI [51]: 2.48 µM
- GI50 [52]: 1.99 µM
- TGI [52]: 4.55 µM
- GI50 [53]: 1.88 µM
- TGI [53]: 3.36 µM
- GI50 [54]: 1.85 µM
- TGI [54]: 3.59 µM
- GI50 [55]: 1.71 µM
- TGI [55]: 3.3 µM
- GI50 [56]: 2.02 µM
- TGI [56]: 4.35 µM
- GI50 [57]: 1.98 µM
- TGI [57]: 4.16 µM

Compound: Cc1cc2c(C(C)C)c(O)c(O)c(/C=N/O)c2c(O)c1-c1c(C)cc2c(C(C)C)c(O)c(O)c(/C=N/O)c2c1O
- GI50 [1]: 2.19 µM
- TGI [1]: 6.72 µM
- GI50 [2]: 1.95 µM
- TGI [2]: 11.4 µM
- GI50 [3]: 3.6 µM
- TGI [3]: 11.9 µM
- GI50 [4]: 3.08 µM
- TGI [4]: 12.9 µM
- GI50 [5]: 2.03 µM
- TGI [5]: 27.4 µM
- GI50 [6]: 2.69 µM
- TGI [6]: 12.1 µM
- GI50 [7]: 2.61 µM
- TGI [7]: 13.3 µM
- GI50 [8]: 3.5 µM
- TGI [8]: 20.2 µM
- GI50 [9]: 1.92 µM
- TGI [9]: 5.74 µM
- GI50 [10]: 2.04 µM
- TGI [10]: 7.45 µM
- GI50 [11]: 3.22 µM
- TGI [11]: 13.3 µM
- GI50 [12]: 2 µM
- TGI [12]: 8.42 µM
- GI50 [13]: 3.19 µM
- TGI [13]: 12.5 µM
- GI50 [14]: 3.6 µM
- TGI [14]: 14.7 µM
- GI50 [15]: 2.15 µM
- TGI [15]: 5.23 µM
- GI50 [16]: 3.4 µM
- TGI [16]: 15.1 µM
- GI50 [17]: 2.24 µM
- TGI [17]: 12.6 µM
- GI50 [18]: 2.61 µM
- TGI [18]: 10.6 µM
- GI50 [19]: 2.87 µM
- TGI [19]: 9.72 µM
- GI50 [20]: 2.77 µM
- TGI [20]: 13.7 µM
- GI50 [21]: 2.29 µM
- TGI [21]: 6.88 µM
- GI50 [22]: 1.74 µM
- TGI [22]: 5.47 µM
- GI50 [23]: 1.94 µM
- TGI [23]: 11.4 µM
- GI50 [24]: 1.33 µM
- TGI [24]: 9.69 µM
- GI50 [25]: 2.94 µM
- TGI [25]: 13.2 µM
- GI50 [26]: 2.36 µM
- TGI [26]: 8.52 µM
- GI50 [58]: 3.57 µM
- TGI [58]: 17.4 µM
- GI50 [27]: 2.52 µM
- TGI [27]: 12.2 µM
- GI50 [28]: 2.35 µM
- TGI [28]: 13.4 µM
- GI50 [29]: 2.23 µM
- TGI [29]: 7.64 µM
- GI50 [30]: 2.97 µM
- TGI [30]: 8.76 µM
- GI50 [31]: 4.34 µM
- TGI [31]: 18.5 µM
- GI50 [32]: 3.32 µM
- TGI [32]: 23.5 µM
- GI50 [34]: 2.54 µM
- TGI [34]: 10.4 µM
- GI50 [35]: 1.69 µM
- TGI [35]: 10.1 µM
- GI50 [36]: 2.8 µM
- TGI [36]: 13.5 µM
- GI50 [37]: 2.07 µM
- TGI [37]: 5.96 µM
- GI50 [38]: 1.85 µM
- TGI [38]: 5.37 µM
- GI50 [39]: 1.54 µM
- TGI [39]: 11.4 µM
- GI50 [40]: 2.89 µM
- TGI [40]: 13.5 µM
- GI50 [41]: 1.49 µM
- TGI [41]: 6.36 µM
- GI50 [42]: 3.22 µM
- TGI [42]: 13.5 µM
- GI50 [43]: 1.43 µM
- TGI [43]: 3.82 µM
- GI50 [44]: 3.91 µM
- TGI [44]: 20.4 µM
- GI50 [45]: 2.88 µM
- TGI [45]: 9.72 µM
- GI50 [46]: 1.84 µM
- TGI [46]: 6.8 µM
- GI50 [47]: 2.44 µM
- TGI [47]: 15.4 µM
- GI50 [48]: 2.46 µM
- TGI [48]: 10.1 µM
- GI50 [49]: 1.89 µM
- TGI [49]: 11.8 µM
- GI50 [50]: 2.78 µM
- TGI [50]: 12.1 µM
- GI50 [51]: 2.41 µM
- TGI [51]: 12 µM
- GI50 [52]: 3.54 µM
- TGI [52]: 16 µM
- GI50 [53]: 3.13 µM
- TGI [53]: 13.7 µM
- GI50 [54]: 3.47 µM
- TGI [54]: 13.8 µM
- GI50 [55]: 1.53 µM
- TGI [55]: 3.47 µM
- GI50 [56]: 2.42 µM
- TGI [56]: 13.8 µM
- GI50 [57]: 2.94 µM
- TGI [57]: 12.3 µM
